These are literature values, as cited in patent US6090854A, “Aryloxyanilides and related compounds” (Bristol-Meyers Company, priority 1999, dated 2000).

In one data set the test system is circadian rhythms. The note with it: exogenous melatonin, rats; Cassone et al. 1986.

Consider `COc1ccc2[nH]cc(CCNC(C)=O)c2c1` [melatonin, N-acetyl-5-methoxytryptamine], for which the oral bioavailability result was “often low and variable”. Further, in the data set on circadian rhythms, the “synchronization of circadian rhythms” value was “found to synchronize circadian rhythms in rats”.
